From patent publication US11655235B2, “Pyrrolidine and piperidine compounds” (YUHAN CORPORATION, priority 2019, dated 2023)

Assays:
Assay type in all cases: biochemical
[1] = molecular target: T1, recombinant human PREP (Homo sapiens, UniProt P48147); assay: PREP inhibition, fluorogenic substrate Z-Gly-Pro-AMC; details: Inhibitory Activity (IC50, nM) PREP, recombinant human PREP
T1 construct: purchased R&D System
T1 sequence (P48147 1-710): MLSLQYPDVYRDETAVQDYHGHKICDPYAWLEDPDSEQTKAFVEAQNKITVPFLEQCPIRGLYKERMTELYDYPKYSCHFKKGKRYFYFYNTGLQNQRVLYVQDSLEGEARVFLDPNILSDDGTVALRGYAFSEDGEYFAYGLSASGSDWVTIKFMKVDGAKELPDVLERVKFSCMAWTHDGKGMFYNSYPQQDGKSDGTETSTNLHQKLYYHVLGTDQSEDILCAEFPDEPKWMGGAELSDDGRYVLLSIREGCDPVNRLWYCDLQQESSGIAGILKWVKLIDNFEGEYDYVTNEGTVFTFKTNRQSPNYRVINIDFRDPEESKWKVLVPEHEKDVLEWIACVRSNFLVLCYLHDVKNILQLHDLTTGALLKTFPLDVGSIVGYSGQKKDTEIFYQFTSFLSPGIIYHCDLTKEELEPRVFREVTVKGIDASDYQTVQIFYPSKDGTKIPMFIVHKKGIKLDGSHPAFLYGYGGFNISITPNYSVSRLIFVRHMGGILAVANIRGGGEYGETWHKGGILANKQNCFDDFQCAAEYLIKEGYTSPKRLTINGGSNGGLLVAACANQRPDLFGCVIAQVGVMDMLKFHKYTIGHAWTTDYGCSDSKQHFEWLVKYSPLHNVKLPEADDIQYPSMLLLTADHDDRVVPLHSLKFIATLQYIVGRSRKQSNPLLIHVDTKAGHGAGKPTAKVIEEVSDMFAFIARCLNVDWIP
Procedure: (§1) The compounds according to the present technology were evaluated in terms of the inhibitory effect on the activity of dipeptidyl peptidases including FAP by using a substrate producing fluorescent substances upon enzymatic decomposition. The test was conducted at 25° C. to get a final reaction volume of 100 μL in a 96 black well plate. […] Briefly, the test compounds were dissolved in dimethyl sulfoxide (DMSO) at a concentration of 20 mM and then subjected to serial dilution, thereby creating an 8 point curve. As for the control group, a 6 point curve created by serial dilution of Talabostat in the same buffer solution was used. Fluorescence intensity was measured using a microplate reader (Flexstation3, Molecular Devices) under the wavelength condition exciting at 380 nm and reading the emission at 460 nm. The inhibitory effect of the test compounds was measured as a decrease (%) in the signal rate as compared to the control group without any inhibitor. Data was fixed to a logistic model with four variables and IC50 value was calculated using GraphPad Prism program. As for recombinant human DPP4 (R&D Systems), 25 mM tris (pH 8.0) buffer as a buffer solution and H-Gly-Pro-AMC (Bachem) as a substrate were used. As for recombinant human DPP7 (R&D Systems), 25 mM MES (pH 6.0) buffer as a buffer solution and Lys-Pro-AMC (Bachem) as a substrate were used. As for recombinant human DPP8 (PBS Bioscience), as a buffer solution, a 10 mM tris (pH 7.4) buffer comprising 10 mM of magnesium chloride and 0.05% of Tween 20, and Z-Ala-Pro-AMC (BPS Bioscience) as a substrate were used. As for recombinant human DPP9 (R&D Systems), a 25 mM tris (pH 8.0) buffer as a buffer solution and H-Gly-Pro-AMC (Bachem) as a substrate were used. As for recombinant human PREP (R&D System), as a buffer solution, a 25 mM tris (pH 7.5) buffer comprising 250 mM sodium chloride and 2.5 mM DTT (Dithiolthreitol), and Z-Gly-Pro-AMC (Bachem) as a substrate were used. The evaluation was made by using 10 ng of DPP4, PDD7, and PREP, 20 ng of DPP8, and 50 ng of DPP9 based on the final reaction. In the evaluation of DPP4, the test compounds were subjected to serial dilution in a buffer under the condition containing up to 0.1% of DMSO. In the evaluation of DPP7, DPP8, DPP9, and PREP, the test compounds were subjected to serial dilution in each buffer under the condition containing up to 0.5% of DMSO.

[2] = molecular target: T2, recombinant human DPP9 (Homo sapiens, UniProt Q86TI2); assay: DPP9 inhibition, fluorogenic substrate H-Gly-Pro-AMC; details: recombinant human DPP9
T2 construct: purchased R&D Systems
T2 sequence (Q86TI2 whole entry): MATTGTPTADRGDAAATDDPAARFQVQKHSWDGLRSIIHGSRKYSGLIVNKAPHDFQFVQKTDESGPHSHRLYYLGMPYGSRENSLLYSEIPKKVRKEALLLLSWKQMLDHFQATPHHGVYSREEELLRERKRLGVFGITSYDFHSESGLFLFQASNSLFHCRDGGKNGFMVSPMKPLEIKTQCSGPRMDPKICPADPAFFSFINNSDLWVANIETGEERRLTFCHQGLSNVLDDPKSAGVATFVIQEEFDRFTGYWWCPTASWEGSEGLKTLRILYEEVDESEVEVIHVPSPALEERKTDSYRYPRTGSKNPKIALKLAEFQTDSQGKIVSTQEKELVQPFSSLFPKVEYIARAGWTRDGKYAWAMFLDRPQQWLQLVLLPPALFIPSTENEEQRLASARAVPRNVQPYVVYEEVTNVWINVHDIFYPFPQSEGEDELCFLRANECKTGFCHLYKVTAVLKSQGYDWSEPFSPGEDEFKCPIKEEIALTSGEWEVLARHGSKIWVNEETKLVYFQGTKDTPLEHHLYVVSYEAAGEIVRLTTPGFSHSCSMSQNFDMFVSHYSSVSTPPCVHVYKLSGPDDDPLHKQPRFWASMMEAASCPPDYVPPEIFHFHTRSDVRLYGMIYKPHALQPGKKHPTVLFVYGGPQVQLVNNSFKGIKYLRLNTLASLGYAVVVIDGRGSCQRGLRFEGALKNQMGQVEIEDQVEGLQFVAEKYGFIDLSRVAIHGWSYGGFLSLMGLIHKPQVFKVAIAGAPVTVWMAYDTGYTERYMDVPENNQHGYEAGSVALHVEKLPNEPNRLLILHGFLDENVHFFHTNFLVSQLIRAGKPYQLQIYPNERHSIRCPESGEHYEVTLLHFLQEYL
Procedure: as §1

[3] = molecular target: DPP4 (Homo sapiens, UniProt P27487); assay: DPP4 inhibition, fluorogenic substrate H-Gly-Pro-AMC; parameters: purchased R&D Systems; details: recombinant human DPP4
Chain of DPP4 (P27487 whole entry): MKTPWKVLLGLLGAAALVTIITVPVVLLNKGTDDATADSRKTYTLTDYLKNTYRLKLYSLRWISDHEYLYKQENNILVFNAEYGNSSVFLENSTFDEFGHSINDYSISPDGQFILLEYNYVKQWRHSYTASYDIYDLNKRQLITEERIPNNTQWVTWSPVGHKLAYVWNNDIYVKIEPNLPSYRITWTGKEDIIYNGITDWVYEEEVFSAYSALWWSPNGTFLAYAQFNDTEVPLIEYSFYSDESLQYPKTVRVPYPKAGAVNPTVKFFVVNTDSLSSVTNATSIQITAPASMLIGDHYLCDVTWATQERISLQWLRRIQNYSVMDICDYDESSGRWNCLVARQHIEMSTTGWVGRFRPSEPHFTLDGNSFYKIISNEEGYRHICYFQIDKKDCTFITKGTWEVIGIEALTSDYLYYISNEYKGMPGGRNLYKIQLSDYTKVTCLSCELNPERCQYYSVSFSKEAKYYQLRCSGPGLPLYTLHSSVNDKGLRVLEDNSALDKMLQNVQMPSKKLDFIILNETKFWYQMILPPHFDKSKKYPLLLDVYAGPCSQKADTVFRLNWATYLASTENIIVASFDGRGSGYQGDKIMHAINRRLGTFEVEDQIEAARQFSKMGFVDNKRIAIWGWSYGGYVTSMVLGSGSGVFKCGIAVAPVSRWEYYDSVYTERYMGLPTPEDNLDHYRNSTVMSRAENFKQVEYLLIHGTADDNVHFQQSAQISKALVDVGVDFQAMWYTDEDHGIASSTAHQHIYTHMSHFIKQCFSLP

[4] = molecular target: T3, Recombinant human FAP (Homo sapiens, UniProt Q12884); assay: FAP FRET assay, FGF21-sequence FRET peptide substrate; details: FRET peptide with human FGF21 sequence, 6 μM, 37° C.
T3 construct: purchased R&D systems
T3 sequence (Q12884 1-760): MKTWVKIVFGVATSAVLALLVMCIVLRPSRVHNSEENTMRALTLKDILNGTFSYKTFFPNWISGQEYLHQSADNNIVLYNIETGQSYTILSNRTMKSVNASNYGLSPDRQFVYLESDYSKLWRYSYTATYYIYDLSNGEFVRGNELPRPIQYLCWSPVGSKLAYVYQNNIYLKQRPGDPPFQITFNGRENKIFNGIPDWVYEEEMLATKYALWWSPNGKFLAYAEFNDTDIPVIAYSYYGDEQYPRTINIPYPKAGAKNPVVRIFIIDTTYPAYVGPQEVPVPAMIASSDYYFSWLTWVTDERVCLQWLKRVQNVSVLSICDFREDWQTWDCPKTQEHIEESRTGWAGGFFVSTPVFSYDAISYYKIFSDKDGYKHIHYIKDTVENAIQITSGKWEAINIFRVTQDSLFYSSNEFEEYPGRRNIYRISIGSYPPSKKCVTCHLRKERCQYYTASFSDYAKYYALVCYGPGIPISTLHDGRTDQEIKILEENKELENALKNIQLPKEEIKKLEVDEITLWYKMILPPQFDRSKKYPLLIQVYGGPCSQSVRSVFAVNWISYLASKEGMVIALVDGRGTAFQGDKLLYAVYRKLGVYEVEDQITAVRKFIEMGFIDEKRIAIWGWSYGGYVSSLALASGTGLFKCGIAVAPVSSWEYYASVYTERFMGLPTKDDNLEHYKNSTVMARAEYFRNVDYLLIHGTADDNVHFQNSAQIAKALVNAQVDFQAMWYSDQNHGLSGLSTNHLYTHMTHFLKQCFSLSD
Summary of the method: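 Recombinant human FAP, 10 ng per reaction, in 50 mM HEPES pH 7.2 with 150 mM NaCl, 0.1 mg/ml BSA, 1 mM EDTA; HyLite Fluor 488/QXL 520 FRET peptide of human FGF21 sequence at 6 μM final, ≤0.1% DMSO, 37° C. IC50 from 8-point curves by four-parameter logistic fit.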

[5] = molecular target: T4, recombinant human DPP7 (Homo sapiens, UniProt Q9UHL4); assay: DPP7 inhibition, fluorogenic substrate Lys-Pro-AMC; details: recombinant human DPP7
T4 construct: purchased R&D Systems
Summary of the method: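 Enzyme per reaction: 50 ng DPP9, 20 ng DPP8, 10 ng each DPP7 and PREP. Compounds were serially diluted (8 points, up to 0.5% DMSO) and incubated at 25 °C.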

Row | Compound | IC50 [1] [nM] | IC50 [2] [nM] | IC50 [3] [nM] | IC50 [4] [nM] | IC50 [5] [nM]
1 | N#C[C@@H]1C[C@H](F)CN1C(=O)CN1CC[C@@H](Nc2cnc3nc(Cl)ccc3c2)C1 [Example 172, (2S,4S)-4-fluoro-1-[2-[(3R)-3-[(7-chloro-1,8-naphthyridin-3-yl)amino]pyrrolidin-1-yl]acetyl]pyrrolidine-2-carbonitrile] | 4240 | 5400 | 1870 | 9.3 | 4900
2 | N#C[C@@H]1C[C@H](F)CN1C(=O)CN1CC[C@@H](Nc2c(F)ccc3ncccc23)C1 [Example 173, (2S,4S)-4-fluoro-1-[2-[(3R)-3-[(6-fluoro-5-quinolyl)amino]pyrrolidin-1-yl]acetyl]pyrrolidine-2-carbonitrile] | 1870 | 2950 | 1120 | 5.3 | 11100
3 | N#C[C@@H]1C[C@H](F)CN1C(=O)CN1CC[C@@H](Nc2cc(F)cc3ncccc23)C1 [Example 174, (2S,4S)-4-fluoro-1-[2-[(3R)-3-[(7-fluoro-5-quinolyl)amino]pyrrolidin-1-yl]acetyl]pyrrolidine-2-carbonitrile] | 2440 | 1990 | 3020 | 2.6 | 846
4 | COc1cc(N[C@@H]2CCN(CC(=O)N3C[C@@H](F)C[C@H]3C#N)C2)c2cccnc2c1 [Example 177, (2S,4S)-4-fluoro-1-[2-[(3R)-3-[(7-methoxy-5-quinolyl)amino]pyrrolidin-1-yl]acetyl]pyrrolidine-2-carbonitrile] | 2920 | 1170 | 3420 | 2.6 | 46.9
5 | COc1ccc(N[C@@H]2CCN(CC(=O)N3C[C@@H](F)C[C@H]3C#N)C2)c2cccnc12 [Example 178, (2S,4S)-4-fluoro-1-[2-[(3R)-3-[(8-methoxy-5-quinolyl)amino]pyrrolidin-1-yl]acetyl]pyrrolidine-2-carbonitrile] | 2350 | 2570 | 1360 | 10.1 | 5960

Other lines, results leading:

Row | IC50 [1] [nM] | IC50 [2] [nM] | IC50 [3] [nM] | IC50 [4] [nM] | IC50 [5] [nM] | Compound
6 | 2930 | 2560 | 1940 | 3.6 | 401 | Cc1cnc2cccc(N[C@@H]3CCN(CC(=O)N4C[C@@H](F)C[C@H]4C#N)C3)c2c1 [Example 179, (2S,4S)-4-fluoro-1-[2-[(3R)-3-[(3-methyl-5-quinolyl)amino]pyrrolidin-1-yl]acetyl]pyrrolidine-2-carbonitrile]
7 | 1560 | 3180 | 1020 | 6.2 | 6790 | Cc1ccc2ncccc2c1N[C@@H]1CCN(CC(=O)N2C[C@@H](F)C[C@H]2C#N)C1 [Example 180, (2S,4S)-4-fluoro-1-[2-[(3R)-3-[(6-methyl-5-quinolyl)amino]pyrrolidin-1-yl]acetyl]pyrrolidine-2-carbonitrile]
8 | 4670 | 4620 | 1060 | 2.6 | 215 | Cc1ccc(N[C@@H]2CCN(CC(=O)N3C[C@@H](F)C[C@H]3C#N)C2)c2cccnc12 [Example 181, (2S,4S)-4-fluoro-1-[2-[(3R)-3-[(8-methyl-5-quinolyl)amino]pyrrolidin-1-yl]acetyl]pyrrolidine-2-carbonitrile]
9 | 5360 | 6690 | 4070 | 3.3 | 819 | N#C[C@@H]1C[C@H](F)CN1C(=O)CN1CC[C@@H](Nc2cc(C(F)(F)F)cc3ncccc23)C1 [Example 182, (2S,4S)-4-fluoro-1-[2-[(3R)-3-[[7-(trifluoromethyl)-5-quinolyl]amino]pyrrolidin-1-yl]acetyl]pyrrolidine-2-carbonitrile]
10 | 3370 | 6770 | 1840 | 2.2 | 1370 | N#C[C@@H]1C[C@H](F)CN1C(=O)CN1CC[C@@H](Nc2ccc(C(F)(F)F)c3ncccc23)C1 [Example 183, (2S,4S)-4-fluoro-1-[2-[(3R)-3-[[8-(trifluoromethyl)-5-quinolyl]amino]pyrrolidin-1-yl]acetyl]pyrrolidine-2-carbonitrile]
11 | 3550 | 2750 | 995 | 2.1 | 1300 | N#C[C@@H]1C[C@H](F)CN1C(=O)CN1CC[C@@H](Nc2cccc3ncc(Cl)cc23)C1 [Example 185, (2S,4S)-4-fluoro-1-[2-[(3R)-3-[(3-chloro-5-quinolyl)amino]pyrrolidin-1-yl]acetyl]pyrrolidine-2-carbonitrile]
12 | 3590 | 4410 | 2220 | 2.7 | 2020 | N#C[C@@H]1C[C@H](F)CN1C(=O)CN1CC[C@@H](Nc2ccc(OC(F)(F)F)c3ncccc23)C1 [Example 186, (2S,4S)-4-fluoro-1-[2-[(3R)-3-[[8-(trifluoromethoxy)-5-quinolyl]amino]pyrrolidin-1-yl]acetyl]pyrrolidine-2-carbonitrile]
13 | 1150 | 1510 | 3500 | 10 | 2580 | N#C[C@@H]1C[C@H](F)CN1C(=O)CN1CC[C@@H](Nc2ccnc3c(Cl)cccc23)C1 [Example 189, (2S,4S)-4-fluoro-1-[2-[(3R)-3-[(8-chloro-4-quinolyl)amino]pyrrolidin-1-yl]acetyl]pyrrolidine-2-carbonitrile]
